Holding throughout (assay type): cell-based
One data set deals with HCV RNA replication. Description: HCV Inhibition Assay (replicon; RT-PCR or luciferase reporter readout). The conditions noted are these: concentration for 90% inhibition of HCV replication, Clone A or ET-lunet replicon cells, 4 days. How it is done:
Clone A or ET-lunet cells were seeded at a density of 1500 or 3000 cells per well in a 96-well plate, respectively. Test compounds serially diluted in culture medium without G418 were added to cells so that the final DMSO concentration was 0.5%. Plates were incubated at 37° C. in a 5% CO2 atmosphere for 4 days. Inhibition of HCV RNA replication was determined by real time PCR (RT-PCR) or by measuring the levels of luminescence expressed via the luciferase reporter gene encoded within the ET replicon. Briefly, for the RT-PCR assay, total RNA was extracted using the RNeasy-96 kit as recommended by the manufacturer (Qiagen, Valencia, Calif.), reversed transcribed into cDNA, and amplified using primer and probe mix for HCV 5′-NTR RNA and human ribosomal RNA (rRNA) in a one-step RT-PCR reaction as described previously (Stuyver, L. J. et al. Antiviral Chem. Chemother. (2006) 17, 79-87). A relative quantification method was used to determine the extent of inhibition. The threshold cycle (Ct) of rRNA was subtracted from the Ct of HCV RNA (ΔCt). The average ΔCt of the DMSO cell controls was then subtracted from the ΔCt of the compound treated sample (ΔΔCt). Percent inhibition was determined by using the following equation: %=(1−(2^−ΔΔC^t))×100. For the luciferase-based replicon assay, luminescence was measured by using a Victor3 plate reader (Perkin-Elmer, Boston, Mass.) following the addition of Bright-Glo reagent as recommended by the manufacturer (Promega, Madison, Wis.). Percent inhibition of HCV replication was determined by comparing the change in luminescence of the drug treated wells versus the DMSO cell controls. EC50 and EC90 values, the concentrations at which 50% and 90% inhibition were achieved, were determined using the GraphPad Prism software (San Diego, Calif.).

Data set [1] is described as follows: Cell Cytotoxicity Assays (MTS dye). The conditions noted are these: human, 50% inhibition value, cell line not given; for CC50: 8 days. How it is done:
(§1) Cell Cytotoxicity Assays.
(§2) Each compound (serially diluted from 100 μM) was added to Huh7 (2×10^3 cells/well), HepG2 (2×10^3 cells/well), BxPC3 (2×10^3 cells/well), or CEM (5×10^3 cells/well) cells and allowed to incubate for 8 days at 37° C. A medium only control was used to determine the minimum absorbance value […]. At the end of the growth period, MTS dye from the CellTiter 96 Aqueous One Solution Cell Proliferation Assay kit (Promega) was added to each well and the plate was incubated for an additional 2 hours. The absorbance at 490 nm was read with a Victor3 plate reader (Perkin Elmer) using the medium only control wells as blanks. The 50% inhibition value (CC50) was determined by comparing the absorbance in wells containing cells and test compound to untreated cell control wells.

The test system of data set [2] is Huh7, HepG2, BxPC3, or CEM cells. Description: Cell Cytotoxicity Assays (MTS dye). The following applies: 50% inhibition value, 8 days, cell line not given. The method, then:
as §1, §2
In general terms: Tetrazolium dyes change colour on reduction, which living cells bring about.

Data set [3] is described as follows: Cytotoxicity, MTT Assay (table footnote a).
Where [4] appears, read: Hepatitis C virus, 96 h, read-out: EC90.

Like-named read-outs stand apart in the source and are kept apart here.

As a reminder, the EC90 is the concentration needed for an effect of 90%. For orientation: CC50 means the concentration giving 50% cytotoxicity. The low end stands for greater toxicity to the cells, the high end for lower toxicity to the cells.

With `COc1nc(N)nc2c1ncn2[C@@H]1O[C@H](COP(=O)(NCc2ccccc2)OCCSC(=O)C(C)(C)CO)[C@@H](O)[C@@]1(C)O` (single isomer, unassigned) [Compound 131a], the EC90 with HCV RNA replication (setting [4]) was 93 nM. For the same compound, the CC50 at 8 days in data set [1] is greater than 20000 nM.

In the case of `COc1nc(N)nc2c1ncn2[C@@H]1O[C@H](COP(=O)(NCc2ccccc2)OCCSC(=O)C(C)(C)CO)[C@@H](O)[C@@]1(C)O` (single isomer, unassigned) [Compound 131b], in the data set on HCV RNA replication (read-out: EC90), the EC90 was 186 nM. This compound registered a half-maximal cytotoxic concentration (CC50) in data set [2] greater than 20000 nM.

For the compound `CC(C)(CO)C(=O)SCCOP(=O)(NCc1ccccc1)OC[C@H]1O[C@@H](n2cnc3c(=O)[nH]c(N)nc32)[C@](C)(O)[C@@H]1O` (single isomer, unassigned) [Compound 132a], the EC90 in the data set on HCV RNA replication (setting [4]) was found to be 300 nM. The compound also yielded a cytotoxic concentration (CC50) at 8 days in data set [1] greater than 20000 nM.

Take `CC(C)(CO)C(=O)SCCOP(=O)(NCc1ccccc1)OC[C@H]1O[C@@H](n2cnc3c(=O)[nH]c(N)nc32)[C@](C)(O)[C@@H]1O` (single isomer, unassigned) [Compound 132b]: the concentration for an effect of 90% (EC90) in the data set on HCV RNA replication (read-out: EC90) was 350 nM. Also, in data set [2], the 50% cytotoxic concentration (CC50) is greater than 20000 nM.

As to `CNC(=O)c1c(-c2ccc(F)cc2)oc2cc(N(CCO)S(C)(=O)=O)c(C3CC3)cc12` [Compound 44, 5-cyclopropyl-2-(4-fluorophenyl)-6-[(2-hydroxyethyl)(methylsulfonyl)amino]-N-methyl-3-Benzofurancarboxamide, reference compound], the EC90 in the data set with HCV RNA replication (setting [4]) is 20 nM. The same compound showed a CC50 in data set [3] greater than 10000 nM.

As to `CC(C)OC(=O)[C@H](C)NP(=O)(OC[C@H]1O[C@@H](n2ccc(=O)[nH]c2=O)[C@](C)(F)[C@@H]1O)Oc1ccccc1` (stereo partly drawn) [Compound 110, (S)-2-{[(1R,4R,5R)-5-(2,4-Dioxo-3,4-dihydro-2H-pyrimidin-1-yl)-4-(R)-fluoro-3-hydroxy-4-methyl-tetrahydro-furan-2-ylmethoxy]-phenoxy-phosphorylamino}-propionic acid (S)-isopropyl ester], in the data set on HCV RNA replication (read-out: EC90), the 90% effect concentration (EC90) amounted to 220 nM. The compound also displayed a cytotoxic concentration (CC50) in data set [2] greater than 20000 nM.

Consider `COc1nc(N)nc2c1ncn2[C@@H]1O[C@H](CO[P@@](=O)(N[C@@H](C)C(=O)OC(C)C)Oc2ccccc2)[C@@H](O)[C@@]1(C)F` [Compound 117, SP-(2S)-isopropyl 2-(((((2R,3R,4R,5R)-5-(2-amino-6-methoxy-9H-purin-9-yl)-4-fluoro-3-hydroxy-4-methyltetrahydrofuran-2-yl)methoxy)(phenoxy)phosphoryl)amino)propanoate], for which, in the data set with HCV RNA replication (setting [4]), the 90% effect concentration (EC90) stood at 130 nM. The compound further yielded a CC50 in data set [1] greater than 20000 nM.

Regarding `COc1nc(N)nc2c1ncn2[C@@H]1O[C@H](CO[P@@](=O)(N[C@@H](C)C(=O)OC(C)C)Oc2ccccc2)[C@@H](O)[C@@]1(C)O` [Compound 133, (S)-isopropyl 2-(((S)-(((2R,3R,4R,5R)-5-(2-amino-6-methoxy-9H-purin-9-yl)-3,4-dihydroxy-4-methyltetrahydrofuran-2-yl)methoxy)(phenoxy)phosphoryl)amino)propanoate], the 90% effect concentration (EC90) in the data set on HCV RNA replication (setting [4]) turned out to be 78 nM. For the same compound, the cytotoxic concentration (CC50) in data set [1] came out at 4140 nM.

As to `CC(C)OC(=O)[C@H](C)N[P@](=O)(OC[C@H]1O[C@@H](n2cnc3c(=O)[nH]c(N)nc32)[C@](C)(O)[C@@H]1O)Oc1ccccc1` [Compound 134, (S)-isopropyl 2-(((S)-(((2R,3R,4R,5R)-5-(2-amino-6-oxo-1H-purin-9(6H)-yl)-3,4-dihydroxy-4-methyltetrahydrofuran-2-yl)methoxy)(phenoxy)phosphoryl)amino)propanoate], the EC90 in the data set with HCV RNA replication (setting [4]) is 560 nM. In data set [1], the cytotoxic concentration (CC50) is greater than 20000 nM.

Turning to `CNC(=O)c1c(-c2ccc(F)cc2)oc2cc(N(CCO[P@@](=O)(N[C@@H](C)C(=O)OC(C)C)Oc3ccccc3)S(C)(=O)=O)c(C3CC3)cc12` [Compound 135, (S)-isopropyl 2-(((S)-(2-(N-(5-cyclopropyl-2-(4-fluorophenyl)-3-(methylcarbamoyl)benzofuran-6-yl)methylsulfonamido)ethoxy)(phenoxy)phosphoryl)amino)propanoate], the EC90 in the data set with HCV RNA replication (setting [4]) turned out to be 81 nM. This compound had a CC50 in data set [1] greater than 20000 nM.

`COc1nc(N)nc2c1ncn2[C@@H]1O[C@H](COP(=O)(N[C@@H](C)C(=O)OCC(C)(C)C)Oc2cccc3ccccc23)[C@@H](O)[C@@]1(C)O` (stereo partly drawn) [Compound 137, (2S)-neopentyl 2-(((((2R,3R,4R,5R)-5-(2-amino-6-methoxy-9H-purin-9-yl)-3,4-dihydroxy-4-methyltetrahydrofuran-2-yl)methoxy)(naphthalen-1-yloxy)phosphoryl)amino)propanoate]: in the data set on HCV RNA replication (Hepatitis C virus, 96 h), it took 1.7 nM to reach the 90% level (EC90). For the same compound, the half-maximal cytotoxic concentration (CC50) at 8 days in data set [1] was greater than 1000 nM.

Consider `COc1nc(N)nc2c1ncn2[C@@H]1O[C@H](COP(=O)(N[C@@H](C)C(=O)OCC(C)(C)C)Oc2cccc3ccccc23)[C@@H](O)[C@@]1(C)O` (stereo partly drawn) [Compound 137a, (S)-neopentyl 2-(((((2R,3R,4R,5R)-5-(2-amino-6-methoxy-9H-purin-9-yl)-3,4-dihydroxy-4-methyltetrahydrofuran-2-yl)methoxy)(naphthalen-1-yloxy)phosphoryl)amino)propanoate], for which the EC90 with HCV RNA replication (setting [4]) was 3.7 nM. Also, the half-maximal cytotoxic concentration (CC50) in data set [1] is 930 nM.

For `CC(C)OC(=O)[C@H](C)N[P@](=O)(OC[C@H]1O[C@@H](n2ccc3c(N)ncnc32)[C@](C)(O)[C@@H]1O)Oc1ccccc1` [Compound 139, (S)-2-{(S)-[(2R,3R,4R,5R)-5-(4-amino-pyrrolo[2,3-d]pyrimidin-7-yl)-3,4-dihydroxy-4-methyl-tetrahydro-furan-2-ylmethoxy]-phenoxy-phosphorylamino}-propionic acid isopropyl ester], in the data set with HCV RNA replication (setting [4]), the 90% effect concentration (EC90) stood at 20 nM. Further, the CC50 in data set [1] is greater than 10000 nM.

In the case of `COc1nc(N)nc2c1ncn2[C@@H]1O[C@H](COP(=O)(N[C@@H](C)C(=O)OCC(C)(C)C)Oc2cccc3ccccc23)[C@@H](O)[C@@]1(C)F` (stereo partly drawn) [Compound 140, (2S)-neopentyl 2-(((((2R,3R,4R,5R)-5-(2-amino-6-methoxy-9H-purin-9-yl)-4-fluoro-3-hydroxy-4-methyltetrahydrofuran-2-yl)methoxy)(naphthalen-1-yloxy)phosphoryl)amino)propanoate], in the data set on HCV RNA replication (Hepatitis C virus, 96 h), the 90% effect concentration (EC90) is 3.5 nM. The compound also had a CC50 at 8 days in data set [1] greater than 20000 nM.
